In publication PMC6017342, “Discovery of Oxime Ethers as Hepatitis B Virus (HBV) Inhibitors by Docking, Screening and In Vitro Investigation” (Molecules : A Journal of Synthetic Chemistry and Natural …, 2018):
Several values for one entry are separate records, joined by “and”; a condition that tells them apart may be missing. Equal entries are not always repeated. Where two headings read alike, the source gives them in different places.

Key:
[1] = tested on: secretion of HBeAg in HepG2.2.15 cells; assay: Inhibition of HBeAg secretion in HepG2.2.15 cells (ELISA); format: cell-based, Hepatitis B virus; conditions: 9 days
Source text: (§1) The anti-HBV activities of the compounds were expressed as the concentration of compound that achieved 50% inhibition (IC50) to the secretion of HBsAg and HBeAg. […] The cytotoxicity of compounds was expressed as the concentration of compound required to kill 50% (TC50) of the HepG2.2.15 cells.
(§2) HepG2.2.15 (clonal cells derived from human hepatoma cell line G2) cells were provided by the Chinese Academy of Medical Sciences (P.R. China) and maintained in minimal essential medium (MEM) supplemented with 10% fetal bovine serum and 380 μg/mL of G418, 50 ug/mL of kanamycin, and 0.03% L-glutamine at 37 °C in a 5% CO2 atmosphere with 100% humidity.
(§3) HepG2.2.15 cells were seeded at a density of 1 × 10^5 cells/ml ([…]) in 96-well plates and maintained at 37 °C for 24 h prior to extract addition, followed by treatment with various concentrations of drugs. […] Cells were treated with drug-containing fresh medium every 3 d for up to 9 d in a time-dependent experiment. Medium was taken at the 9th day of the treatment and stored at −20 °C until analysis. The IC50 and selected index (SI) of each compound were calculated, respectively.
(§4) The levels of HBV surface antigen (HBsAg) and HBV e antigen (HBeAg) in the supernatant of the HepG2.2.15 cell were simultaneously detected using enzyme-linked immunosorbent assay (ELISA) kits (Rongsheng Biotechnology Co. Ltd., Shanghai, China) according to the manufacturer’s instructions.The synthesized derivatives were expressed as the concentration of compound that achieved 50% inhibition (IC50) to the secretion of HBsAg and HBeAg. The selectivity index (SI) was determined as the ratio of CC50 to IC50, which is a major pharmaceutical parameter of estimates possible for future clinical application.

[2] = tested on: HepG2.2.15 cells; assay: Cytotoxicity on HepG2.2.15 cells (MTT assay, 9 days); format: cell-based, human; conditions: HepG 2.2.15 cell
Description: as §2
HepG2.2.15 cells were seeded at a density of 1 × 10^5 cells/ml ([…]) in 96-well plates and maintained at 37 °C for 24 h prior to extract addition, followed by treatment with various concentrations of drugs. Lamivudine (3TC) was served as the positive control. Cells were treated with drug-containing fresh medium every 3 d for up to 9 d in a time-dependent experiment. Medium was taken at the 9th day of the treatment and stored at −20 °C until analysis. The IC50 and selected index (SI) of each compound were calculated, respectively.
Logarithmically growing cells were seeded in 96-well culture plates at a density of 1 × 10^5 cells/mL ([…]). They were cultured for 24 h and then treated with various concentrations of drugs. Optical density (OD) values were read at 450 nm after 9 days and the percentage of cell death was calculated; the cells were treated with drug-containing fresh medium every 3 d for up to 9 d. After drug treatment, the cytotoxicity was measured using the MTT assay.

[3] = tested on: secretion of HBsAg in HepG2.2.15 cells; assay: microbe, parasite or virus in culture; format: cell-based, Hepatitis B virus; conditions: for IC50 / HBsAg IC50: - = inhibition ratio less than 50% in the test concentration range
Source text: as §1, §2, §3, §4

[4] = Hepatitis B virus, HepG2.2.15, 216 h, ELISA, - = inhibition ratio less than 50% in the test concentration range
[5] = Hepatitis B virus, HepG2.2.15, 216 h, read-out: HBsAg IC50, HepG2.2.15 cells, 9 days, ELISA
[6] = ELISA, - = inhibition ratio less than 50% in the test concentration range
[7] = HepG2.2.15 cells, 9 days, ELISA
[8] = HepG2.2.15 cells, 9 days, ELISA, read-out: HBsAg IC50

Compound	IC50 [1, 4]	TC50 (50% cytotoxicity concentration) [2]	HBsAg SI (selectivity index = TC50/IC50) ([3]; HepG2.2.15 cells, 9 days)	IC50 [3, 5]	IC50 [1, 6]	HBsAg IC50 [3, 7]	IC50 [3, 8]	melting point	HBeAg SI (selectivity index = TC50/IC50) [1]	HBeAg IC50 [1, 6]
CCOC(=O)CC/C(=N\OC)C(=O)c1ccc(C)cc1 [Compound 3a-1, Ethyl (E)-4-(4-methylbenzoyl)-4-[(methoxy)imino]butanoate]	> 359 µM	>1500 µM	>5.12	293 µM	–	–	–	–	–	–
CO/N=C(\CCC(=O)Nc1ccccc1)c1ccc(OC)cc1 [Compound 5b-1, (E)-4-(4-Methoxyphenyl)-4-[(methoxy)imino]-N-phenylbutanamide]	> 359 µM	473.25 µM	2.28	208 µM	–	–	–	–	–	–
Ethyl (E)-4-(4-methylbenzoyl)-4-[(benzyloxy)imino]butanoate [Compound 3a-2]	–	>1500 µM	–	–	> 359 µM	non	> 293 µM	–	–	–
Nc1ccn([C@@H]2CS[C@H](CO)O2)c(=O)n1 [Compound 3TC, Lamivudine, reference compound]	–	517.40 µM	–	291 µM	–	–	–	–	–	–
CCOC(=O)CC/C(=N\OC)c1ccc(Cl)cc1 [Compound 3c-1, Ethyl (E)-4-(4-chlorophenyl)-4-[(methoxy)imino]butanoate]	> 359 µM	450.67 µM	2.00	225 µM	–	–	–	–	–	–
O=C(CC/C(=N\OCc1ccccc1)c1ccc(Cl)cc1)Nc1ccccc1 [Compound 5c-2, (E)-4-(4-Chlorophenyl)-4-[(benzyloxy)imino]-N-phenylbutanamide]	–	–	–	–	–	–	–	116 to 117.9 °C	–	–
Ethyl (E)-4-(4-methoxyphenyl)-4-[(benzyloxy)imino]butanoate [Compound 3b-2]	–	429.88 µM	4.95	–	> 359 µM	–	86.9 µM	–	–	–
(E)-4-(4-Methylbenzoyl)-4-[(methoxy)imino]-N-phenylbutanamide [Compound 5a-1]	–	>1500 µM	>20.02	–	274 µM	–	74.9 µM	–	>5.48	–
Ethyl (E)-4-(4-chlorophenyl)-4-[(benzyloxy)imino]butanoate [Compound 3c-2]	–	127.10 µM	1.34	–	93.9 µM	–	94.7 µM	–	1.34	–
Furan-2-ylmethyl (E)-4-(4-methylbenzoyl)-4-[(benzyloxy)imino]butanoate [Compound 4a-2]	–	>1500 µM	–	–	> 359 µM	non	> 293 µM	–	–	–
CO/N=C(\CCC(=O)OCc1ccco1)c1ccc(OC)cc1 [Compound 4b-1, Furan-2-ylmethyl (E)-4-(4-methoxyphenyl)-4-[(methoxy)imino]butanoate]	> 359 µM	347.55 µM	2.72	128 µM	–	–	–	–	–	–
CO/N=C(\CCC(=O)Nc1ccccc1)c1ccc(Cl)cc1 [Compound 5c-1, (E)-4-(4-Chlorophenyl)-4-[(methoxy)imino]-N-phenylbutanamide]	246 µM	1138.45 µM and >1500 µM	28.51	–	–	–	–	–	4.63	non
Furan-2-ylmethyl (E)-4-(4-chlorophenyl)-4-[(benzyloxy)imino]butanoate [Compound 4c-2]	–	>1500 µM	–	–	> 359 µM	–	> 293 µM	–	–	–
(E)-4-(4-Methoxyphenyl)-4-[(benzyloxy)imino]-N-phenylbutanamide [Compound 5b-2]	–	>1500 µM	>14.82	–	192 µM	–	101 µM	–	>7.83	–
CO/N=C(\CCC(=O)OCc1ccco1)c1ccc(Cl)cc1 [Compound 4c-1, Furan-2-ylmethyl (E)-4-(4-chlorophenyl)-4-[(methoxy)imino]butanoate]	> 359 µM	>1500 µM	–	> 293 µM	–	non	–	–	–	–
CCOC(=O)CC/C(=N\OC)c1ccc(OC)cc1 [Compound 3b-1, Ethyl (E)-4-(4-methoxyphenyl)-4-[(methoxy)imino]butanoate]	> 359 µM	1383.74 µM	–	> 293 µM	–	inhibitory activity could be neglected	–	–	–	–
COc1ccc(/C(CCC(=O)OCc2ccco2)=N/OCc2ccccc2)cc1 [Compound 4b-2, Furan-2-ylmethyl (E)-4-(4-methoxyphenyl)-4-[(benzyloxy)imino]butanoate]	> 359 µM	1153.49 µM	4.94	234 µM	–	–	–	–	–	–
